Reference: patent US20230243822A1, “MOLECULAR DISEASE PROFILE AND USE THEREOF FOR MONITORING AND TREATING RHEUMATAOID ARTHRITIS” (JANSSEN BIOTECH, INC., priority 2020, published 2023)

Legend:
14-analyte M-DP panel = assay: Pharmacodynamic M-DP score, 14-analyte panel (SomaLogic SOMAscan), clinical studies in RA; format: in vivo, human; conditions: for M-DP score mean difference ± SD, Good vs. No / M-DP score mean ± SD, DAS28-CRP response group Good / M-DP score mean ± SD, DAS28-CRP response group Moderate / M-DP score mean ± SD, DAS28-CRP response group No: response at week 24; for GMean M-DP scores, change: week 4 or latest time point evaluated (weeks 28, 28, and 12, respectively)
Text: (§1) Serum samples and data from eight interventional clinical studies with seven different active treatments for RA or placebo treatment were obtained and analyzed: sirukumab (anti-IL-6) and placebo treatments in SIRROUND-M (NCT01689532; Takeuchi T, et al. Arthritis Res Ther. 2018 Mar. 7; 20(1): 42), SIRROUND-D (NCT01604343; Takeuchi T, et al. Ann Rheum Dis. 2017 Dec.; 76(12): 2001-2008), and SIRROUND-T (NCT01606761; Aletaha D, et al. Lancet. 2017 Mar. 25; 389(10075): 1206-1217); sirukumab and adalimumab (anti-TNF-alpha) treatments in SIRROUND-H (NCT02019472; Taylor PC, et al. Ann Rheum Dis. 2018 May; 77(5): 658-666); golimumab (anti-TNF-alpha) treatment in GO-FURTHER (NCT00973479; Weinblatt ME, et al. Ann Rheum Dis. 2013 March; 72(3): 381-9); guselkumab (anti-IL-23p19), ustekinumab (anti-IL-12/IL-23p40), and placebo treatments in CNTO1275ARA2001 (NCT01645280; Cox JD, et al. […]); JNJ-40346527 (colony-stimulating factor-1 inhibitor) and placebo treatments in 40346527ARA2001 (NCT01597739; Genovese MC, et al. J Rheumatol. 2015 October; 42(10): 1752-60). Plasma samples were obtained from the RA-MAP TACERA study (Cope AP, et al. Nat Rev Rheumatol. 2018 January; 14(1): 53-60) before (baseline) and 6-months after initiation of conventional synthetic disease-modifying anti-rheumatic drugs (csDMARDs). Details of treatment dose groups, concomitant methotrexate use, and previous experience with csDMARDs and biologics are reported in Table 1. The studies were conducted in accordance with the Declaration of Helsinki. The study protocols were reviewed and approved by an independent ethics committee or institutional review board for each study center. Written informed consent was obtained from all patients before study entry. Additional study details and patient characteristics are available in the referenced publications for each study. For SIRROUND-D and SIRROUND-T studies, sets of serum samples from demographically-matched healthy controls were obtained from commercial sources (BioIVT, Westbury, N.Y.).
(§2) Serum samples from baseline (week 0) and the time points indicated in Table 1 were provided for quantification of 1189 serum analytes using the SomaScan v3.1 platform (SomaLogic, Boulder, Colo.; www.somalogic.com), with the exception of RA-MAP TACERA, for which plasma samples were analyzed for 1301 analytes using the SomaScan v3.2 platform. For some studies, a redacted dataset reporting data for a subset of the analytes was obtained. Relative fluorescence unit (RFU) data were sequentially normalized for hybridization controls (internal standards per samples), median signal across all samples (assumes same total protein concentration across sample set), and calibration controls (common sample standards across analysis plates). Samples failed quality control standards defined by Somalogic were excluded from analyses. The normalized RFU values were log2-transformed for subsequent analyses.
(§3) Changes in analyte expression levels were calculated for individual samples as the log2 transform of the ratio of the analyte level at the indicated time point (visit level) over the analyte level at baseline (baseline level) for a given subject, i.e., log 2(visit level/baseline level). Changes in RA disease-associated analytes per sample were summarized using a pharmacodynamic (PD) molecular disease profile (M-DP) score, defined as the median value of the log 2(visit level/baseline level) values for analytes in the defined M-DP analyte set. […] PD M-DP scores in the log 2(visit level/baseline level) scale can be transformed to percent change from baseline, using the transformation: (2^M-DP score−1)×100%.
Statistical analyses were performed on log2-transformed data, for either normalized Relative fluorescence unit (RFU) datasets or within-subject fold/baseline datasets. Significance of differences between groups was evaluated using General Linear Models, with t-tests when comparing two groups. […]

[1] = system: 4-analyte M-DP panel (CRP, CXCL10, CXCL13, SAA); assay: Pharmacodynamic M-DP score, 4-analyte panel CRP, CXCL10, CXCL13, SAA (SOMAscan), clinical studies in RA; format: in vivo, human; conditions: for M-DP score mean difference ± SD, Good vs. No / M-DP score mean ± SD, DAS28-CRP response group Good / M-DP score mean ± SD, DAS28-CRP response group Moderate / M-DP score mean ± SD, DAS28-CRP response group No: response at week 24
Text: as §1, §2, §3
In selecting the best minimal set of analytes that performs similarly to the full 14-analyte set, analyte sets that results in significant associations between DAS28-CRP EULAR good vs. no response with p<0.05 for each study were prioritized (Table 4). […]

RA patients = conditions: RA patients; cited from earlier work
[2] = CNTO1275ARA2001, score at week 4, ustekinumab SC 90 mg or guselkumab SC 50 or 200 mg
[3] = CNTO1275ARA2001, score at week 28, ustekinumab SC 90 mg or guselkumab SC 50 or 200 mg
[4] = 4-analyte, CNTO1275ARA2001, score at week 4, ustekinumab SC 90 mg or guselkumab SC 50 or 200 mg
[5] = 4-analyte, CNTO1275ARA2001, score at week 28, ustekinumab SC 90 mg or guselkumab SC 50 or 200 mg
[6] = SIRROUND-H, score at week 4, sirukumab SC 50 mg q4w or adalimumab SC 40 mg q2w
[7] = 4-analyte, SIRROUND-H, score at week 4, sirukumab SC 50 mg q4w or adalimumab SC 40 mg q2w
[8] = GO-FURTHER, score at week 14, golimumab IV 2 mg/kg
[9] = 4-analyte, GO-FURTHER, score at week 14, golimumab IV 2 mg/kg

Substance | M-DP score mean ± SD, All treated (14-analyte M-DP panel; [2]) | M-DP score mean difference ± SD, Good vs. No (14-analyte M-DP panel; [2]) | M-DP score mean ± SD, DAS28-CRP response group Good (14-analyte M-DP panel; [2]) | M-DP score mean ± SD, DAS28-CRP response group Moderate (14-analyte M-DP panel; [2]) | M-DP score mean ± SD, DAS28-CRP response group No (14-analyte M-DP panel; [2]) | M-DP score mean ± SD, All treated (14-analyte M-DP panel; [3]) | M-DP score mean difference ± SD, Good vs. No (14-analyte M-DP panel; [3]) | M-DP score mean ± SD, DAS28-CRP response group Good (14-analyte M-DP panel; [3]) | M-DP score mean ± SD, DAS28-CRP response group Moderate (14-analyte M-DP panel; [3]) | M-DP score mean ± SD, DAS28-CRP response group No (14-analyte M-DP panel; [3]) | GMean M-DP scores, change (14-analyte M-DP panel) | M-DP score mean ± SD, All treated [1, 4] | M-DP score mean difference ± SD, Good vs. No [1, 4] | M-DP score mean ± SD, DAS28-CRP response group Good [1, 4] | M-DP score mean ± SD, DAS28-CRP response group Moderate [1, 4] | M-DP score mean ± SD, DAS28-CRP response group No [1, 4] | M-DP score mean ± SD, All treated [1, 5] | M-DP score mean difference ± SD, Good vs. No [1, 5] | M-DP score mean ± SD, DAS28-CRP response group Good [1, 5] | clinical efficacy in the underlying clinical studies (RA patients) | also measured
guselkumab [reference compound] | −0.01 ± 0.19 log2 (fold/baseline) | 0.00 ± 0.19 log2 (fold/baseline) | −0.04 ± 0.19 log2 (fold/baseline) | 0.02 ± 0.20 log2 (fold/baseline) | −0.04 ± 0.19 [12] log2 (fold/baseline) | −0.03 ± 0.26 log2 (fold/baseline) | −0.03 ± 0.21 log2 (fold/baseline) | −0.08 ± 0.10 log2 (fold/baseline) | 0.01 ± 0.34 log2 (fold/baseline) | −0.05 ± 0.25 [12] log2 (fold/baseline) | not decreased | −0.12 ± 0.39 log2 (fold/baseline) | −0.11 ± 0.33 (0.4781) log2 (fold/baseline) | −0.19 ± 0.30 log2 (fold/baseline) | −0.11 ± 0.49 log2 (fold/baseline) | −0.08 ± 0.35 log2 (fold/baseline) | −0.07 ± 0.37 log2 (fold/baseline) | −0.12 ± 0.38 (0.5645) log2 (fold/baseline) | −0.12 ± 0.38 log2 (fold/baseline) | not clinically efficacious | M-DP score mean ± SD, DAS28-CRP response group Moderate [1, 5]: −0.10 ± 0.39 log2 (fold/baseline); M-DP score mean ± SD, DAS28-CRP response group No [1, 5]: −0.01 ± 0.38 log2 (fold/baseline)
ustekinumab [reference compound] | −0.08 ± 0.34 log2 (fold/baseline) | −0.32 ± 0.32 log2 (fold/baseline) | −0.24 ± 0.34 log2 (fold/baseline) | −0.04 ± 0.29 log2 (fold/baseline) | 0.08 ± 0.31 [31] log2 (fold/baseline) | −0.09 ± 0.43 log2 (fold/baseline) | −0.49 ± 0.41 log2 (fold/baseline) | −0.34 ± 0.33 log2 (fold/baseline) | −0.05 ± 0.23 log2 (fold/baseline) | −0.15 ± 0.49 [13] log2 (fold/baseline) | not decreased | −0.05 ± 0.77 log2 (fold/baseline) | −0.81 ± 0.83 (0.0469) log2 (fold/baseline) | −0.49 ± 0.27 log2 (fold/baseline) | 0.06 ± 0.41 log2 (fold/baseline) | 0.33 ± 0.98 log2 (fold/baseline) | 0.04 ± 0.84 log2 (fold/baseline) | −0.94 ± 0.82 (0.0323) log2 (fold/baseline) | −0.53 ± 0.68 log2 (fold/baseline) | not clinically efficacious | M-DP score mean ± SD, DAS28-CRP response group Moderate [1, 5]: −0.04 ± 0.53 log2 (fold/baseline); M-DP score mean ± SD, DAS28-CRP response group No [1, 5]: 0.41 ± 0.94 log2 (fold/baseline); M-DP score effect size (decrease), EULAR DAS28-CRP good responders ([1]; week 4 M-DP scores): > 1.0 standard deviation
adalimumab [reference compound] |  |  |  |  |  |  |  |  |  |  |  |  |  |  |  |  |  |  |  |  | M-DP score decrease (14-analyte M-DP panel; SIRROUND-H, 4-week treatment, adalimumab SC 40 mg q2w): 12%; M-DP score mean ± SD, All treated (14-analyte M-DP panel; [6]): −0.18 ± 0.33 log2 (fold/baseline); M-DP score mean difference ± SD, Good vs. No (14-analyte M-DP panel; [6]): −0.06 ± 0.33 log2 (fold/baseline); M-DP score mean ± SD, DAS28-CRP response group Good (14-analyte M-DP panel; [6]): −0.22 ± 0.37 log2 (fold/baseline); M-DP score mean ± SD, DAS28-CRP response group Moderate (14-analyte M-DP panel; [6]): −0.17 ± 0.33 log2 (fold/baseline); M-DP score mean ± SD, DAS28-CRP response group No (14-analyte M-DP panel; [6]): −0.14 ± 0.26 [23] * log2 (fold/baseline); M-DP score mean ± SD, All treated [1, 7]: −0.43 ± 0.53 log2 (fold/baseline); M-DP score mean difference ± SD, Good vs. No [1, 7]: −0.29 ± 0.45 (0.0217) log2 (fold/baseline); M-DP score mean ± SD, DAS28-CRP response group Good [1, 7]: −0.58 ± 0.50 log2 (fold/baseline); M-DP score mean ± SD, DAS28-CRP response group Moderate [1, 7]: −0.39 ± 0.59 log2 (fold/baseline); M-DP score mean ± SD, DAS28-CRP response group No [1, 7]: −0.29 ± 0.37 log2 (fold/baseline); M-DP score decrease ([1]; 4-analyte, adalimumab, week 4): 26%; M-DP score effect size (decrease below zero) ([1]; 4-analyte, week 4): 0.8 standard deviations
golimumab [reference compound] |  |  |  |  |  |  |  |  |  |  |  |  |  |  |  |  |  |  |  | clinically efficacious | M-DP score decrease (14-analyte M-DP panel; GO-FURTHER, 14-weeks treatment, golimumab IV): 26%; M-DP score mean ± SD, All treated (14-analyte M-DP panel; GO-FURTHER, score at week 14, golimumab IV 2 mg/kg weeks 0, 4, then q8w plus methotrexate): −0.44 ± 0.37 log2 (fold/baseline); M-DP score mean difference ± SD, Good vs. No (14-analyte M-DP panel; [8]): −0.35 ± 0.35 log2 (fold/baseline); M-DP score mean ± SD, DAS28-CRP response group Good (14-analyte M-DP panel; [8]): −0.56 ± 0.39 log2 (fold/baseline); M-DP score mean ± SD, DAS28-CRP response group Moderate (14-analyte M-DP panel; [8]): −0.45 ± 0.34 log2 (fold/baseline); M-DP score mean ± SD, DAS28-CRP response group No (14-analyte M-DP panel; [8]): −0.21 ± 0.27 [22] * log2 (fold/baseline); M-DP score mean ± SD, All treated ([1]; 4-analyte, GO-FURTHER, score at week 14, golimumab IV 2 mg/kg weeks 0, 4, then q8w plus methotrexate): −0.94 ± 0.63 log2 (fold/baseline); M-DP score mean difference ± SD, Good vs. No [1, 9]: −0.56 ± 0.55 (0.0003) log2 (fold/baseline); M-DP score mean ± SD, DAS28-CRP response group Good [1, 9]: −1.13 ± 0.61 log2 (fold/baseline); M-DP score mean ± SD, DAS28-CRP response group Moderate [1, 9]: −0.94 ± 0.68 log2 (fold/baseline); M-DP score mean ± SD, DAS28-CRP response group No [1, 9]: −0.57 ± 0.43 log2 (fold/baseline); M-DP score decrease, good response subgroup ([1]; golimumab treatment data): 54%; M-DP score decrease, no response subgroup ([1]; golimumab treatment data): 33%
